The test system of data set [1] is FF-Jc1 reporter virus. Briefly: HCV cell entry, FF-Jc1 reporter virus in Huh-7.5 cells (FIG. 9). The class given is cell-based. Conditions: Hepatitis C virus, Huh7.5. How it is done: FIG. 9: Comparison of flavones 13, 14 and 15. Huh-7.5 cells were seeded in 12-well plates and infected for 4 h with FF-Jc1 reporter virus +/−inhibitor (ranging from 0-100 μM final concentration). 72 h after infection, the cells were lysed and the reporter activity measured. The mean values of 6 measurements are shown in the graph. Fluorine analogues of flavone 13, flavones 14 (BJ751/1) and 15 (BJ755-3 I), inhibit HCV cell entry with 8-10-fold increased effects compared to those of the flavone 13.

The subject of data set [2] is Jc1. Put plainly: Infection of DMSO-differentiated Huh7-Lunet/CD81 cells with Jc1, limiting dilution assay. The note with it: virus production monitored for 12 days. The class given is cell-based, HCV. The source says:
Next, we investigated if combination of CsA, an inhibitor of HCV RNA-replication in vitro and in vivo and also an immunosuppressive drug used in the HCV post-transplant setting, with BJ486K would increase antiviral potency. To this end, we challenged Huh7-Lunet/CD81 cells differentiated by DMSO-treatment with the highly infectious Jc1 chimera in the presence of CsA, BJ486K or a combination of both drugs (FIG. 5). […] To obtain a more quantitative measure for the combined antiviral effect of BJ486K and CsA, we inoculated nave Huh7-Lunet/CD81 cells with JcR-2a virus together with varying doses of both drugs (FIG. 6A).

The subject of data set [3] is HK6a (GT6a). Briefly: Luciferase infection assay, chimeric reporter virus HK6a/6a/R2a in Huh7-Lunet/CD81 cells. The class given is cell-based, HCV. Conditions: Hepatitis C virus, Huh-7, 72 h.
The test system of data set [4] is S52 (GT3a). Briefly: Luciferase infection assay, chimeric reporter virus S52/3a/R2a in Huh7-Lunet/CD81 cells. The class given is cell-based, HCV. Conditions: Hepatitis C virus, Huh-7, 72 h.
Data set [5] has as its system J4 (GT1b). Put plainly: Luciferase infection assay, chimeric reporter virus J4/1b/R2a in Huh7-Lunet/CD81 cells. The class given is cell-based, HCV. Conditions: Hepatitis C virus, Huh-7, 72 h.
Data set [6] deals with cell culture derived particles from genotype 1a, 1b, 2b, 3a, 4a, 5a and 6a. Put plainly: Genotype panel of chimeric reporter viruses, summary statement. The class given is cell-based, HCV. Conditions: Hepatitis C virus.
Data set [7] in a line: Bioavailability of BJ486K in mice, plasma levels by LC-MS/MS. The class given is in vivo. How it is done:
FIG. 10: Oral bioavailability of BJ486K in mice. A single dose of 0.25 mg/kg of BJ486K was administered through oral (A) or intravenous route (B). Plasma levels of BJ486K were determined 5, 15, 30, 60, 120 and 180 minutes post administration. Mean values of two animals including the standard errors are given. (C)
Bioavailability of BJ486K. Mice (24 in total) were treated either orally or intraveniously with a single dose of 0.25 mg/kg of the inhibitor (solved in saline/10% cremophor EL). At different time points after inhibitor administration (5 min, 15 min, 30 min, 60 min, 120 min or 180 min) two mice from each group were sacrified and the blood was centrifuged to obtain the plasma, which was stored at −80° C. until further examination. 400 μl of each plasma sample was mixed with equal amount of a 2% trifluoroacetic acid and loaded on a SPE Strata C18 column (equilibrated with 1 ml methanol and 1 ml 1% trifluoroacetic acid) for solid phase extraction of the plasma. After several washing steps (1% trifluoroacetic acid and water), the samples were eluted with acetonitrile and dried. […] Samples were further analyzed with a LC-MS/MS (triple quadrupole mass spectrometer LCMS 8030 Shimadzu), which was calibrated at the day of measurement. […] Bioavailability was calculated by dividing the area under curve (AUC) for oral route by the AUC for intravenous route.

The subject of data set [8] is Luc-Jc1 reporter viruses. Put plainly: Drug added before, during or after inoculation with Luc-Jc1 reporter virus (FIG. 2C). The class given is cell-based, HCV. The note with it: luciferase 72 h. On the procedure:
(A) Huh7-Lunet/CD81 cells were transfected with the subgenomic luciferase replicon depicted at the top. Drugs were added 4 h post transfection and the level of HCV RNA translation and RNA replication was quantified by luciferase assays 72 h post transfection. Mean values of three independent experiments each with quadruplicate measurements including the standard deviation are shown. (B) Cells were transfected with the Jc1 chimera depicted above and drugs were added 4 h later. HCV virus release in the presence or absence of given compounds was determined by quantification of intracellular and extracellular core protein levels using a core-specific ELISA. […] Infectivity was determined 72 h later by luciferase assays and compared to DMSO-treated controls. […]
Huh7-Lunet/CD81 cells were infected with reporter virus particles essentially as described recently (Koutsoudakis et al., J. Virol. 2006; 80: 5308-5320). […] Cells were inoculated for 4 h at 37° C., viral inoculum was replaced by fresh culture fluid and infection was quantified 48 h or 72 h after virus inoculation using luciferase assays. […] Cells infected with the renilla reporter virus were lysed in 200 μl lysis buffer (Promega, Mannheim, Germany) and after addition of the luciferase substrate (1 μM of coelenterazin (P. J. K., Kleinblittersdorf, Germany) in PBS) measured for 1 s in a luminometer (Lumat LB9507, Berthold, Freiburg, Germany). […]

Structures are written as SMILES. pEC50, pIC50: −log10 of the molar value.

Consider `COc1ccc(-c2cc(=O)c3c(O)c(O)c(OC)cc3o2)cc1` [BJ486K, 5,6-Dihydroxy-7-methoxy-2-(4-methoxy-phenyl)-chromen-4-one], for which the pEC50 – broadly, the EC50 on a negative log10 scale, so that one unit is a factor of ten – in data set [1] was ~5.70. In addition, the “effect on infection of differentiated cells, in words” value in data set [2] is given as “reduced infection almost down to background levels”. The negative-log IC50 (pIC50) (in general, −log10 of the IC50, conventionally taken in molar units) in data set [3] is 6.12; in data set [4], 5.54; in data set [5], 5.63; in data set [6], > 5.38. Also, the figures for the concentration for an effect of 90% (IC90) in data set [3], in data set [4] and in data set [5] were 2390 nM, 10600 nM and 9290 nM, respectively. In addition, the bio-availability result in data set [7] (mice) is “rather low”. Moreover, the half-life (in general, the time needed for the level to fall by half in the phase considered) in data set [7] (mouse, plasma, in mice) was ~7 min. Further, the “interference with HCV infection by time of addition” value in data set [8] is given as “only interfered with HCV infection when the drug was present during virus inoculation”.

Values taken from patent US20150056166A1, “FLAVONE DERIVATIVES AND THEIR USE” (Twincore GmbH, priority 2012, published 2015).
